In paper PMC4028696, “Development of a screen to identify selective small molecules active against patient-derived metastatic and chemoresistant breast cancer cells” (Breast Cancer Research : BCR, 2013):
Where a name gives a salt, the structure may show the parent alone. Peptide text beside a SMILES is read from it. * marks the point of attachment. Cbz = O=C(OCc1ccccc1)*; CH2F = FC*

Key:
Type in all cases: cell-based, human
MCF-7 cells [1] = assay: Dose response assay, ATPlite viability, four days; conditions: MCF-7, four days of treatment, ATP viability
Experimental: (§1) Cells were seeded in white 96-well plates (Costar, Tewksbury, MA, USA) in 100 μL of their respective media at varying densities to achieve 80% to 90% confluency after five days in culture. The compounds dissolved in DMSO were diluted in their corresponding media containing 2% FBS and an EP Motion 5075 (Eppendorf North America, Hauppauge, NY, USA) liquid handler was utilized to perform a serial dilution. […] After the cells were cultured for 24 hours, the media were aspirated and the cells were treated with the compounds and vehicle controls in triplicate. After four days of treatment, viability was determined utilizing the ATPlite 1step assay system (Perkin Elmer, Waltham, MA, USA) according to the manufacturer's instructions. Luminescence measurements were acquired utilizing a Perkin Elmer 2104 EnVision plate reader. Raw luminescence values were normalized to the DMSO vehicle control wells.

MDA-MB-231 cells = assay: Dose response assay, ATPlite viability, four days; conditions: MDA-MB-231, four days of treatment, ATP viability
Experimental: as §1

PE1007070 cells = assay: Dose response assay, ATPlite viability, four days; conditions: PE1007070, four days of treatment, ATP viability
Experimental: as §1

PE1008032 cells = assay: Dose response assay, ATPlite viability, four days; conditions: PE1008032, four days of treatment, ATP viability
Experimental: as §1

PE904557a cells = assay: Dose response assay, ATPlite viability, four days; conditions: four days of treatment, ATP viability, N/A = data could not be fitted
Experimental: as §1

T47D cells = assay: Dose response assay, ATPlite viability, four days; conditions: four days of treatment, ATP viability
Experimental: as §1

LC3A/B-II = assay: Western blot for LC3A/B-II (autophagy); conditions: most cells, 50 μM, 24 hours
Experimental: Cells were lysed in cold radioimmunoprecipitation assay buffer (50 mM Tris HCl, 150 mM NaCl, 0.1% sodium dodecyl sulfate (SDS), 0.5% sodium deoxycholate, 1% Triton X-100, pH = 8.0) supplemented with protease inhibitor cocktail (Sigma), phosphatase inhibitor cocktail 2 (Sigma) and 1 mM dithiothreitol (DTT) (Sigma). The lysate was sonicated for 30 seconds using a 450 Sonifier (Branson Ultrasonics, Danbury, CT, USA) and was centrifuged at 14,000 RPM for five minutes at 4°C. The protein concentration was determined using the BCA protein assay kit (Peirce, Rockford, IL, USA) and the samples were boiled for five minutes with 4× SDS Laemmli buffer. Equal amounts of protein were resolved on SDS polyacrylamide gels and transferred to an Immobilon-FL PVDF membrane (EMD Millipore). Blots were blocked in Odyssey Blocking Buffer (LI-COR, Lincoln, NE, USA) for one hour at room temperature, stained with primary antibodies overnight at 4°C, washed, and stained with IR800CW or IR680 anti-mouse or rabbit secondary antibodies (LI-COR) for one hour at room temperature. Blots were imaged with the Odyssey Infrared Imaging System (LI-COR).

MCF-7 cells [2] = assay: Pan-caspase inhibitor effect on C-6 induced cell death; conditions: data not shown
[3] = Homo sapiens, 96 h, N/A = data could not be fitted

Compound	EC50 (MCF-7 cells [1]; Homo sapiens, MCF7, 96 h) [nM]	EC50 (MDA-MB-231 cells; Homo sapiens, 96 h) [nM]	EC50 (PE1007070 cells; [3]) [nM]	EC50 (PE1008032 cells; [3]) [nM]	EC50 (PE904557a cells; Homo sapiens, 96 h) [nM]	EC50 (T47D cells; Homo sapiens, 96 h) [nM]	other results
COc1cccc2c1C(=O)c1c(O)c3c(c(O)c1C2=O)C[C@@](O)(C(=O)CO)C[C@@H]3O[C@H]1C[C@H](N)[C@H](O)[C@H](C)O1 [Doxorubicin, doxorubicin hydrochloride]	261	110	677	346	736	192	
Nc1ccn([C@@H]2O[C@H](CO)[C@@H](O)C2(F)F)c(=O)n1 [Gemcitabine, gemcitabine hydrochloride]	2.73	9.63				6.29	
CC(=O)O[C@H]1C(=O)[C@@]2(C)[C@H]([C@H](OC(=O)c3ccccc3)[C@]3(O)C[C@H](OC(=O)[C@H](O)[C@@H](NC(=O)c4ccccc4)c4ccccc4)C(C)=C1C3(C)C)[C@]1(OC(C)=O)CO[C@@H]1C[C@@H]2O [Taxol, paclitaxel]	0.299	2.52				13.7	
Cc1[nH]c2ccccc2c1CCNCc1ccc(/C=C/C(=O)NO)cc1 [LBH589, panobinostat]	21.6	23.1	185	13.7	90.5	31	
CCN(CC)CCCC(C)Nc1ccnc2cc(Cl)ccc12 (stereo not shown) [chloroquine, Chloroquine]							LC3A/B-II levels (LC3A/B-II): significant increase
CC(C)C[C@H](NC(=O)[C@H](Cc1ccccc1)NC(=O)c1cnccn1)B(O)O [Bortezomib, bortezomib]	5.71	35	14.6	3.33	32	33	
C=CCNC1=C2C[C@@H](C)C[C@H](OC)[C@H](O)[C@@H](C)/C=C(\C)[C@H](OC(N)=O)[C@@H](OC)/C=C\C=C(/C)C(=O)NC(=CC1=O)C2=O [17-AAG, 17-(allylamino)-17-demethoxygeldanamycin]							EC50 (MCF-7 cells [1]): 867 nM; EC50 (MDA-MB-231 cells): 1500 nM; EC50 (PE1007070 cells): 1150 nM; EC50 (PE1008032 cells): 1660 nM; EC50 (PE904557a cells): 36.8 nM; EC50 (T47D cells): 1410 nM
N.N.[Cl][Pt][Cl] [Cisplatin, cis-diammineplatinum (II) dichloride]							EC50 (MCF-7 cells [1]): 8670 nM; EC50 (MDA-MB-231 cells): 6880 nM; EC50 (PE1007070 cells): 10100 nM; EC50 (PE1008032 cells): 19400 nM; EC50 (T47D cells): 50200 nM
COC(=O)C[C@H](NC(=O)[C@H](C)NC(=O)[C@@H](NC(=O)OCc1ccccc1)C(C)C)C(=O)CF [Z-VAD-FMK] (Cbz-Val-Ala-Asp(OMe)-CH2F)							effect on C-6 induced cell death (MCF-7 cells [2]): did not affect
